From PubChem BioAssay (NCI)
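The compound was tested at five concentrations on cells cultured in 96-well plates, with a 48-hour exposure period. GI50: concentration for 50% inhibition of growth. TGI is the concentration that stops growth completely.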

Columns and labels:
Test in all cases: DTP human tumour cell line panel, 48 h
HOP-62 NSCLC = tested on: HOP-62 NSCLC
MDA-MB-435 = tested on: MDA-MB-435
UO-31 renal = tested on: UO-31 renal
786-0 renal = tested on: 786-0 renal
HCT-116 colon = tested on: HCT-116 colon
SK-MEL-28 melanoma = tested on: SK-MEL-28 melanoma
OVCAR-5 ovarian = tested on: OVCAR-5 ovarian
UACC-257 melanoma = tested on: UACC-257 melanoma
IGROV1 ovarian = tested on: IGROV1 ovarian
SN12C renal = tested on: SN12C renal
NCI/ADR-RES ovarian = tested on: NCI/ADR-RES ovarian
RPMI-8226 leukemia = tested on: RPMI-8226 leukemia
HL-60(TB) leukemia = tested on: HL-60(TB) leukemia
MOLT-4 leukemia = tested on: MOLT-4 leukemia
NCI-H460 lung = tested on: NCI-H460 lung
SW-620 colon = tested on: SW-620 colon
SF-268 CNS = tested on: SF-268 CNS
EKVX NSCLC = tested on: EKVX NSCLC
TK-10 renal = tested on: TK-10 renal
RXF 393 renal = tested on: RXF 393 renal
HT29 colon = tested on: HT29 colon
NCI-H226 lung = tested on: NCI-H226 lung
SK-OV-3 ovarian = tested on: SK-OV-3 ovarian
MCF7 breast = tested on: MCF7 breast
HOP-92 NSCLC = tested on: HOP-92 NSCLC
SR leukemia = tested on: SR leukemia
MDA-MB-231 breast = tested on: MDA-MB-231 breast
KM12 colon = tested on: KM12 colon
A498 renal = tested on: A498 renal
M14 melanoma = tested on: M14 melanoma
SF-539 CNS = tested on: SF-539 CNS
UACC-62 melanoma = tested on: UACC-62 melanoma
HCC-2998 colon = tested on: HCC-2998 colon
HS 578T breast = tested on: HS 578T breast
T-47D breast = tested on: T-47D breast
NCI-H23 lung = tested on: NCI-H23 lung
SNB-75 CNS = tested on: SNB-75 CNS
CCRF-CEM leukemia = tested on: CCRF-CEM leukemia
A549 NSCLC = tested on: A549 NSCLC
ACHN renal = tested on: ACHN renal
SK-MEL-5 melanoma = tested on: SK-MEL-5 melanoma
OVCAR-4 ovarian = tested on: OVCAR-4 ovarian
HCT-15 colon = tested on: HCT-15 colon
U251 CNS = tested on: U251 CNS
SNB-19 CNS = tested on: SNB-19 CNS
MALME-3M melanoma = tested on: MALME-3M melanoma
OVCAR-8 ovarian = tested on: OVCAR-8 ovarian
DU-145 prostate = tested on: DU-145 prostate
SF-295 CNS = tested on: SF-295 CNS
SK-MEL-2 melanoma = tested on: SK-MEL-2 melanoma
NCI-H522 lung = tested on: NCI-H522 lung
BT-549 breast = tested on: BT-549 breast
PC-3 prostate = tested on: PC-3 prostate
LOX IMVI melanoma = tested on: LOX IMVI melanoma
CAKI-1 renal = tested on: CAKI-1 renal
COLO 205 colon = tested on: COLO 205 colon
OVCAR-3 ovarian = tested on: OVCAR-3 ovarian
K-562 leukemia = tested on: K-562 leukemia

`COc1ccccc1N1CCN(CCCNC(=O)c2cc(Cl)c(N)c(Cl)c2)CC1` showed a TGI (HOP-62 NSCLC) greater than 100 µM, a TGI (MDA-MB-435) greater than 100 µM and a TGI (UO-31 renal) of 58.1 µM. It also gave a TGI (786-0 renal) greater than 100 µM, a TGI (HCT-116 colon) greater than 100 µM and a TGI (SK-MEL-28 melanoma) greater than 100 µM. For the same molecule, the TGI (OVCAR-5 ovarian) was greater than 100 µM, the TGI (UACC-257 melanoma) was 47.8 µM and the TGI (IGROV1 ovarian) was greater than 100 µM. For the same molecule, the TGI (SN12C renal) was greater than 100 µM, the TGI (NCI/ADR-RES ovarian) was greater than 100 µM and the TGI (RPMI-8226 leukemia) was 54.5 µM. The TGI (HL-60(TB) leukemia) was 55.8 µM, the TGI (MOLT-4 leukemia) was 92.6 µM and the TGI (NCI-H460 lung) was greater than 100 µM. For the same molecule, the TGI (SW-620 colon) was greater than 100 µM, the TGI (SF-268 CNS) was greater than 100 µM and the TGI (EKVX NSCLC) was greater than 100 µM. The TGI (TK-10 renal) was greater than 100 µM, the TGI (RXF 393 renal) was 91 µM and the TGI (HT29 colon) was greater than 100 µM. The TGI (NCI-H226 lung) was 98 µM, the TGI (SK-OV-3 ovarian) was greater than 100 µM and the TGI (MCF7 breast) was greater than 100 µM. It also gave a TGI (HOP-92 NSCLC) of 31.4 µM, a TGI (SR leukemia) of 67.5 µM and a TGI (MDA-MB-231 breast) greater than 100 µM. For the same molecule, the TGI (KM12 colon) was greater than 100 µM, the TGI (A498 renal) was greater than 100 µM and the TGI (M14 melanoma) was 53.1 µM. The TGI (SF-539 CNS) was greater than 100 µM, the TGI (UACC-62 melanoma) was greater than 100 µM and the TGI (HCC-2998 colon) was 41.6 µM. The TGI (HS 578T breast) was greater than 100 µM, the TGI (T-47D breast) was greater than 100 µM and the TGI (NCI-H23 lung) was greater than 100 µM. The TGI (SNB-75 CNS) was greater than 100 µM, the TGI (CCRF-CEM leukemia) was greater than 100 µM and the TGI (A549 NSCLC) was greater than 100 µM. For the same molecule, the TGI (ACHN renal) was greater than 100 µM, the TGI (SK-MEL-5 melanoma) was 33.2 µM and the TGI (OVCAR-4 ovarian) was greater than 100 µM. For the same molecule, the TGI (HCT-15 colon) was greater than 100 µM, the TGI (U251 CNS) was greater than 100 µM and the TGI (SNB-19 CNS) was greater than 100 µM. It also gave a TGI (MALME-3M melanoma) of 37.7 µM, a TGI (OVCAR-8 ovarian) greater than 100 µM and a TGI (DU-145 prostate) greater than 100 µM. It also gave a TGI (SF-295 CNS) of 34.1 µM.

`CN1CCN(c2ccc(Nc3ncc4cc(C#N)c(=O)n(C5CCCC5)c4n3)cc2)CC1` was tested, and the GI50 (HOP-62 NSCLC) was 2.19 µM, the TGI (HOP-62 NSCLC) was greater than 25.5 µM and the GI50 (MDA-MB-435) was 3.1 µM. The TGI (MDA-MB-435) was greater than 100 µM, the GI50 (UO-31 renal) was 0.218 µM and the TGI (UO-31 renal) was 7.03 µM. The GI50 (786-0 renal) was 0.693 µM, the TGI (786-0 renal) was 4.11 µM and the GI50 (HCT-116 colon) was 0.587 µM. For the same molecule, the TGI (HCT-116 colon) was greater than 100 µM, the GI50 (SK-MEL-2 melanoma) was 4.87 µM and the TGI (SK-MEL-2 melanoma) was greater than 62.8 µM. It also gave a GI50 (NCI-H522 lung) of 4.29 µM, a TGI (NCI-H522 lung) greater than 100 µM and a GI50 (SK-MEL-28 melanoma) of 3.54 µM. The TGI (SK-MEL-28 melanoma) was greater than 100 µM, the GI50 (OVCAR-5 ovarian) was 0.942 µM and the TGI (OVCAR-5 ovarian) was greater than 100 µM. For the same molecule, the GI50 (BT-549 breast) was 2.65 µM, the TGI (BT-549 breast) was 7.58 µM and the GI50 (UACC-257 melanoma) was 4.02 µM. The TGI (UACC-257 melanoma) was greater than 100 µM, the GI50 (IGROV1 ovarian) was 0.605 µM and the TGI (IGROV1 ovarian) was greater than 23.3 µM. The GI50 (SN12C renal) was 0.917 µM, the TGI (SN12C renal) was 15.5 µM and the GI50 (NCI/ADR-RES ovarian) was 2.94 µM. The TGI (NCI/ADR-RES ovarian) was greater than 33 µM, the GI50 (PC-3 prostate) was 0.611 µM and the TGI (PC-3 prostate) was greater than 23.2 µM. It also gave a GI50 (RPMI-8226 leukemia) of 0.87 µM, a TGI (RPMI-8226 leukemia) of 5.33 µM and a GI50 (HL-60(TB) leukemia) of 0.595 µM. The TGI (HL-60(TB) leukemia) was 4.2 µM, the GI50 (MOLT-4 leukemia) was 0.3 µM and the TGI (MOLT-4 leukemia) was 3.17 µM. For the same molecule, the GI50 (NCI-H460 lung) was 0.64 µM, the TGI (NCI-H460 lung) was greater than 49.3 µM and the GI50 (LOX IMVI melanoma) was 0.58 µM. It also gave a TGI (LOX IMVI melanoma) of 3.51 µM, a GI50 (SW-620 colon) of 0.451 µM and a TGI (SW-620 colon) greater than 100 µM. It also gave a GI50 (SF-268 CNS) of 1.48 µM, a TGI (SF-268 CNS) of 4.95 µM and a GI50 (EKVX NSCLC) of 2.93 µM. It also gave a TGI (EKVX NSCLC) greater than 100 µM, a GI50 (TK-10 renal) of 0.82 µM and a TGI (TK-10 renal) greater than 24.2 µM. The GI50 (RXF 393 renal) was 0.477 µM, the TGI (RXF 393 renal) was 2.23 µM and the GI50 (HT29 colon) was 0.6 µM. It also gave a TGI (HT29 colon) greater than 100 µM, a GI50 (NCI-H226 lung) of 0.84 µM and a TGI (NCI-H226 lung) of 10.6 µM. It also gave a GI50 (SK-OV-3 ovarian) of 4.41 µM, a TGI (SK-OV-3 ovarian) greater than 100 µM and a GI50 (MCF7 breast) of 0.346 µM. The TGI (MCF7 breast) was greater than 100 µM, the GI50 (SR leukemia) was 0.661 µM and the TGI (SR leukemia) was 3.86 µM. It also gave a GI50 (KM12 colon) of 1.52 µM, a TGI (KM12 colon) greater than 100 µM and a GI50 (CAKI-1 renal) of 0.346 µM. The TGI (CAKI-1 renal) was 17.3 µM, the GI50 (A498 renal) was 0.199 µM and the TGI (A498 renal) was 2.24 µM. It also gave a GI50 (M14 melanoma) of 1.39 µM, a TGI (M14 melanoma) greater than 100 µM and a GI50 (SF-539 CNS) of 1.28 µM. For the same molecule, the TGI (SF-539 CNS) was 3.27 µM, the GI50 (UACC-62 melanoma) was 4 µM and the TGI (UACC-62 melanoma) was greater than 100 µM. It also gave a GI50 (COLO 205 colon) of 0.797 µM, a TGI (COLO 205 colon) greater than 100 µM and a GI50 (HCC-2998 colon) of 2.8 µM. For the same molecule, the TGI (HCC-2998 colon) was greater than 100 µM, the GI50 (HS 578T breast) was 0.807 µM and the TGI (HS 578T breast) was 6.07 µM. For the same molecule, the GI50 (T-47D breast) was 2.32 µM, the TGI (T-47D breast) was greater than 100 µM and the GI50 (OVCAR-3 ovarian) was 2.94 µM. It also gave a TGI (OVCAR-3 ovarian) greater than 24.2 µM, a GI50 (SNB-75 CNS) of 0.336 µM and a TGI (SNB-75 CNS) of 3.8 µM. For the same molecule, the GI50 (CCRF-CEM leukemia) was 0.597 µM, the TGI (CCRF-CEM leukemia) was greater than 20.9 µM and the GI50 (A549 NSCLC) was 2.05 µM. The TGI (A549 NSCLC) was greater than 100 µM, the GI50 (ACHN renal) was 0.309 µM and the TGI (ACHN renal) was 13.5 µM. It also gave a GI50 (SK-MEL-5 melanoma) of 3.17 µM, a TGI (SK-MEL-5 melanoma) greater than 100 µM and a GI50 (OVCAR-4 ovarian) of 3.08 µM. For the same molecule, the TGI (OVCAR-4 ovarian) was greater than 100 µM, the GI50 (HCT-15 colon) was 0.94 µM and the TGI (HCT-15 colon) was greater than 100 µM. It also gave a GI50 (U251 CNS) of 1.74 µM, a TGI (U251 CNS) greater than 100 µM and a GI50 (SNB-19 CNS) of 1.77 µM. The TGI (SNB-19 CNS) was 18.7 µM, the GI50 (MALME-3M melanoma) was 1.9 µM and the TGI (MALME-3M melanoma) was greater than 100 µM. For the same molecule, the GI50 (OVCAR-8 ovarian) was 3.18 µM, the TGI (OVCAR-8 ovarian) was greater than 47.9 µM and the GI50 (DU-145 prostate) was 2.13 µM. For the same molecule, the TGI (DU-145 prostate) was greater than 100 µM, the GI50 (K-562 leukemia) was 1.25 µM and the TGI (K-562 leukemia) was greater than 100 µM. It also gave a GI50 (SF-295 CNS) of 1.19 µM and a TGI (SF-295 CNS) greater than 42.6 µM.
